Measured values taken from PubChem BioAssay (NCI).
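Exposure lasted 48 hours, with cells grown in 96-well plates and compounds tested at five concentrations. GI50 marks 50% less growth. Definition used: TGI = concentration required for complete inhibition of growth.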

Key:
Assay in all cases: NCI-60 cell line screen, 48 h
[1] = test system: OVCAR-5 ovarian
[2] = test system: SN12C renal
[3] = test system: SK-MEL-2 melanoma
[4] = test system: HOP-92 NSCLC
[5] = test system: TK-10 renal
[6] = test system: HOP-62 NSCLC
[7] = test system: COLO 205 colon
[8] = test system: HL-60(TB) leukemia
[9] = test system: HCT-15 colon
[10] = test system: MCF7 breast

Structure (SMILES) | TGI [1] [µM] | TGI [2] [µM] | TGI [3] [µM] | TGI [4] [µM] | TGI [5] [µM] | TGI [6] [µM] | TGI [7] [µM] | TGI [8] [µM] | TGI [9] [µM] | GI50 [1] [µM] | GI50 [2] [µM] | GI50 [3] [µM] | GI50 [4] [µM] | GI50 [5] [µM] | GI50 [7] [µM] | GI50 [9] [µM] | GI50 [10] [µM] | TGI [10] [µM] | GI50 [6] [µM]
CC(=O)OC(C)(C)C[N+](=O)[O-] | > 100 | > 100 | > 100 | > 100 | > 100 | > 100 | > 100 | > 100 | > 100 | – | – | – | – | – | – | – | – | – | –
O=C(CCN1CCCC1)Nc1ccc2c(Nc3ccc(Br)cc3)c3ccccc3nc2c1 | 3.03 | 2.69 | 3.76 | 2.71 | 3.37 | – | 4.33 | – | 2.5 | 1.63 | 1.3 | 1.98 | 1.31 | 1.72 | 1.85 | 1.16 | – | – | –
CCCCCC1CC=CC(NC(=O)OCc2ccccc2)C1/C=C/CCCC1OCCO1 (configuration not stated) | > 100 | > 100 | > 100 | > 100 | > 100 | > 100 | > 100 | 33.4 | > 100 | – | – | – | – | – | – | – | – | – | –
O=C(CS(=O)c1nc2ccccc2nc1-c1ccccc1)Nc1ccc(Cl)cc1 (configuration not stated) | > 100 | 33.7 | 65.5 | 49.2 | 82.7 | 71.8 | 58.6 | – | 59.4 | 33.7 | 18.2 | 27.4 | 12.3 | 27.8 | 23.4 | 21.2 | 38.7 | > 100 | 23.2
COC(=O)/C=C(C)/C=C/c1c(C)c(C(C)=O)c(C)n1C | > 100 | > 100 | – | 92.8 | > 100 | > 100 | > 100 | > 100 | > 100 | – | – | – | – | – | – | – | – | – | –
CCc1cc2c(Nc3ccccc3)c3c(nc2s1)CCCC3 | > 100 | > 100 | > 100 | > 100 | > 100 | > 100 | > 100 | > 100 | > 100 | – | – | – | – | – | – | – | – | – | –
Cc1cc2oc(=O)cc(OC/C=C3/CCC(=O)O3)c2cc1C | 22.9 | 22.5 | 16.1 | 10.6 | 8.34 | 26.4 | 10.4 | – | 12.2 | 8.7 | 5.2 | 3.41 | 1.65 | 2 | 2.19 | 2.69 | 2.25 | 12.6 | 12.1
NS(=O)(=O)c1ccc(-n2nc(-c3ccccc3)cc2-c2cc(O)ccc2O)cc1 | 92.6 | > 100 | > 100 | > 100 | 95.2 | > 100 | > 100 | – | > 100 | 25.3 | > 100 | > 100 | > 100 | 35.9 | > 100 | > 100 | 69.4 | > 100 | 90.8
CCN(CC)CCCNc1nccc2c(C)c3[nH]c4ccncc4c(=O)c3cc12 | 19.7 | 8.9 | 9.34 | 7.64 | 22.5 | 16.7 | 12.5 | 8.58 | > 100 | – | – | – | – | – | – | – | – | – | –
